Test results: patent publication US11944623B2, “Modulators of Kv3 channels to treat pain” (Autifony Therapeutics Limited, priority 2015, dated 2024)

How the values were obtained:
hKv3.4 channels = target: T1, hKv3.4 channels (Homo sapiens, UniProt Q03721); assay: Kv3.4 Assay 3 (two-electrode voltage clamp, Xenopus oocytes); assay type: cell-based; parameters: dose or concentration left out as unconfirmed
T1 construct: expressed in transfected cells; host or cells: Xenopus laevis oocytes, microinjected in vitro transcribed mRNA
T1 sequence (Q03721 1-635): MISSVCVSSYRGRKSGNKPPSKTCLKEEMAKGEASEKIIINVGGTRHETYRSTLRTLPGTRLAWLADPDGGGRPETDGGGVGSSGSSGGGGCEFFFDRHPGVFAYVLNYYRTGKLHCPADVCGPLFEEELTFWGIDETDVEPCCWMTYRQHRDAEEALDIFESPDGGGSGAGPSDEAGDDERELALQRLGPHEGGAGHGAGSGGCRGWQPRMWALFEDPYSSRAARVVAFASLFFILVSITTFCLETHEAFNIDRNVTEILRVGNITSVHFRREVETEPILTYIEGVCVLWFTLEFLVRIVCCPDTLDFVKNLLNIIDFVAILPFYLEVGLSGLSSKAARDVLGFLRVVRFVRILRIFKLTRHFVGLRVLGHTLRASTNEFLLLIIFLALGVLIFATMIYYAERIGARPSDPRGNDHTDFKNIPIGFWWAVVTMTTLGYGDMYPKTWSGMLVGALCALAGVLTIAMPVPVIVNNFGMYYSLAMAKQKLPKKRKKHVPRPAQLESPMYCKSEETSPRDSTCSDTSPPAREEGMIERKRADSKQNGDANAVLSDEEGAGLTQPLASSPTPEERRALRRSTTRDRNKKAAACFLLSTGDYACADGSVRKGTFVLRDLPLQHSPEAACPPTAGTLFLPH
Procedure: hKv3.4 channels were heterologously expressed in Xenopus ooctyes following microinjection of in vitro transcribed mRNA (mMessage mMachine kit, Ambion, Austin, TX). Whole-oocyte currents were recorded 1-4 day post-microinjection at room temperature (21-23° C.) under two-electrode voltage-clamp conditions (OC-725C, Warner, Hamden, CT). ND-96 and ND-96 plus the test compound were delivered using a gravity-driven perfusion system. Whole-oocyte currents mediated by hKv3.4 channels were elicited by 400 ms depolarizing steps from −40 to 60 mV in 10 mV increments from a holding potential of −100 mV under in the absence and then presence of test compound. Voltage-conductance curves were constructed from the peak currents evoked at each voltage step, and the data were fitted to a Boltzmann equation. Data acquisition, leak subtraction and initial analyses were performed using pClamp 9.2/10.3 (Molecular Devices, Sunnyvale, CA). Macroscopic currents were low-pass filtered at 0.5-1 kHz and digitized at 1-2 kHz. Leak and capacitive currents were subtracted on line using a p/4 subtraction strategy. Xenopus laevis frogs were handled according IACUC approved protocols and regulations.

[1] = target: T2, human cloned Kv3.4 channels (Homo sapiens, UniProt Q03721); assay: Kv3.4 Assay 1 (QPatch HT, HEK293); assay type: cell-based; conditions: 10 µM concentration (N=2)
T2 construct: expressed in transfected cells
T2 sequence (Q03721 1-635): T1 sequence (Q03721 1-635)
Procedure: The effect of compounds on human cloned Kv3.4 channels expressed stably in a HEK293 call line was evaluated at room temperature using the QPatch HT® (Sophion Bioscience A/S, Denmark), an automatic parallel patch clamp system. Compounds were evaluated at 10 μM in three cells. The duration of exposure to each test article concentration was 5 minutes.
In preparation for a recording session, intracellular solution was loaded into the intracellular compartments of the QPlate and cell suspension was pipetted into the extracellular compartments. After establishment of a whole-cell configuration, membrane currents were recorded using up to 48 parallel patch clamp amplifiers in the QPatch HT® system. The current records were sampled at 2000 Hz and low-pass Bessel filtered at 400 Hz.
Valid whole-cell recordings met the following criteria: • 1. Seal resistance (Rseal) ≥200 MΩ. • 2. Leak current 25% channel current.

Row | SMILES | effect on Kv3.4 mediated channel currents (hKv3.4 channels) | shift of the voltage-conductance curve for hK3.4 (hKv3.4 channels) | potentiation of the observed Kv3.4 current [1]
1 | Cc1ccc(Oc2ncc(N3C(=O)NC(C)(C)C3=O)cn2)c2c1OCC21CC1 [Compound 1, 5,5-dimethyl-3-[2-(7-methylspiro[2H-benzofuran-3,1′-cyclopropane]-4-yl)oxypyrimidin-5-yl]imidazolidine-2,4-dione] | No significant effect | did not significantly shift | –
2 | CC[C@@]1(C)NC(=O)N(c2cnc(Oc3ccc(C)c(OC(F)(F)F)c3)nc2)C1=O [Compound 2, (5R)-5-ethyl-5-methyl-3-[2-({4-methyl-3-[(trifluoromethyl)oxy]phenyl}oxy)-5-pyrimidinyl]-2,4-imidazolidinedione] | – | – | did not potentiate
